Experiments:
[1] = tested on: lipid droplets in Hela cells; experiment: Lipid droplet labeling, colocalized confocal imaging with Nile Red in Hela cells; assay type: cell-based; conditions: 5 min; for lipid droplet labeling ability (in words): 1a and 1b 6 μM, 1c 5 μM, 1d 8 μM
Source text: In the following examples, the cells are imaged by laser confocal microscopy, where excitation at 405 nm is employed in the green light channel, and the fluorescence signal in the range of 468-550 nm is collected; and excitation at 561 nm is employed in the red light channel, and the fluorescence signal in the range of 570-750 nm is collected.
To test the fluorescent labeling ability of the fluorescent marker 1a compared with a commercial lipid droplet marker, the fluorescent marker 1a was prepared into a stock solution in dimethyl sulfoxide, and then added to a conventional cell culture medium, to give a concentration of the fluorescent marker 1a in the cell culture medium of 6 μM. Subsequently, Nile Red (100 nM), a lipid droplet red marker, was added and co-incubated with Hela cells in an incubator at saturated humidity, 37° C., and 5% CO2 for 5 min (the same below); The cells were washed three times with a PBS buffer, and imaged by laser confocal microscopy, where excitation at 405 nm was employed in the green light channel, and the fluorescence signal in the range of 468-550 nm was collected; and excitation at 561 nm was employed in the red light channel, and the fluorescence signal in the range of 570-750 nm was collected. The results are shown in FIG. 5, in which (a) is the bright field, (b) is the cell image with the fluorescent marker 1a, (c) is the cell image with the lipid droplet Red marker, (d) is overlapped image of the green light channel and the red light channel, (e) is the fluorescence intensity of the ROI line in the overlapped image, and (f) is the colocalization assay, where the colocalization coefficient is 0.95.
To verify the labeling effect of the fluorescent marker 1b (6 μM) on lipid droplets in Hela cells, the same experimental method as that with the fluorescent marker 1a was used.
The experimental method with the fluorescent marker 1c (5 μM) was the same as that with the fluorescent marker 1a.
To verify whether Compound 1d can be used in fluorescence imaging of lipid droplets in Hela cells just as the probes 1a-1c do, a cell assay was carried out. The fluorescent marker 1d was prepared into a stock solution in dimethyl sulfoxide, and then added to a conventional cell culture medium, to give a concentration of the fluorescent marker 1d in the cell culture medium of 8 μM. The Hela cells were co-incubated in an incubator at saturated humidity, 37° C., 5% CO2 for 5 min. The cells were washed three times with a PBS buffer, and imaged by laser confocal microscopy, where excitation at 405 nm was employed in the green light channel, and the fluorescence signal in the range of 468-550 nm was collected. […] The results are shown in FIG. 5, in which(s) is the bright field, (t) is the cell image with the fluorescent marker 1d, (u) is the cell image with the lipid droplet Red marker, (v) is overlapped image of the green light channel and the red light channel, (w) is the fluorescence intensity of the ROI line in the overlapped image, and (x) is the colocalization assay, where the colocalization coefficient is 0.90.

[2] = Ultraviolet absorption and fluorescence emission in dichloromethane; assay type: physicochemical; conditions: 10 μM in dichloromethane; for highest fluorescence intensity (emission wavelength): excitation 428 nm (1a), 407 nm (1b), 461 nm (1c), 430 nm (1d), slit 3 nm/3 nm (1d: 5 nm/3 nm)
Procedure: The ultraviolet absorption and fluorescence emission performances of the dyes 1a-1d prepared above (at a concentration of 10 μM) in dichloromethane were tested. The horizontal ordinate is the wavelength, and the vertical ordinate is the absorbance and fluorescence intensity, respectively.
(§1) The ultraviolet absorption and fluorescence emission spectra of the fluorescent marker 1a (at a concentration of 10 μM) in dichloromethane are shown in FIG. 3. The fluorescent marker 1a has the maximum absorption at 452 nm (FIG. 3 (a)); and the fluorescent marker 1a has the highest fluorescence intensity at 532 nm (FIG. 3 (e)), where the excitation wavelength is 428 nm, and the slit width is 3 nm/3 nm.
as §1, with “1b” for “1a”, “473” for “452”, “(b));” for “(a));”, “562” for “532”, “(f)),” for “(e)),”, “407” for “428”
as §1, with “1c” for “1a”, “375” for “452”, “(c));” for “(a));”, “546” for “532”, “(g)),” for “(e)),”, “461” for “428”
The ultraviolet absorption and fluorescence emission spectra of the fluorescent marker 1d (at a concentration of 10 μM) in dichloromethane are shown in FIG. 3. The fluorescent marker 1d has the maximum absorption at 429 nm (FIG. 3 (d)); and the fluorescent marker 1d has the highest fluorescence intensity at 495 nm (FIG. 3 (h)), where the excitation wavelength is 430 nm, and the slit width is 5 nm/3 nm.

[3] = Photostability under iodine-tungsten lamp irradiation (residual absorptivity); assay type: physicochemical; conditions: 10 μM in acetonitrile, 500 W iodine-tungsten lamp at 25 cm, 6 hrs irradiation
Procedure: The photostability of the above prepared dyes 1a-1d was tested (at a concentration of 10 μM). Dyes 1a-1d and the reference substance Cy7 of corresponding weights were weighed, and respectively dissolved in acetonitrile (at a concentration of 10 μM). All samples were irradiated with a Philips iodine-tungsten lamp (500 W), where the distance between the lamp and the sample was set to 25 cm. An 8 cm-thick sodium nitrite (60 g per liter) cold trap was placed between the lamp and the sample, to eliminate the heat and short-wavelength light. The irradiation was continued for 6 hrs, during which UV and fluorescence were performed every half hour. After six hours, the light stability was measured by residual absorptivity calculated based on the change in the absorption intensity at various times before and after the irradiation. […] It can be seen that dyes 1a-1d have higher photostability compared to cyanine dyes.

[4] = tested on: mitochondria in Hela cells; experiment: Mitochondria labeling, colocalized confocal imaging with CMA Ros in Hela cells; assay type: cell-based
[5] = 6 μM marker with Nile Red (100 nM)

Row | maximum absorption [2] [nm] | highest fluorescence intensity (emission wavelength) [2] [nm] | photostability (residual absorptivity) [3] [%] | SMILES | colocalization coefficient [1, 5] | lipid droplet labeling ability (in words) [1] | mitochondria labeling ability (in words) ([4]; 8 μM) | colocalization coefficient ([4]; 8 μM marker with CMA Ros (100 nM)) | colocalization coefficient ([1]; 5 μM marker with Nile Red (100 nM))
1 | 452 | 532 | 46 | CCN(CC)c1ccc2nc3c(cc2c1)c(=O)oc1ccccc13 [1a] | 0.95 | has lipid droplet labeling ability in Hela cells | – | – | –
2 | 473 | 562 | 43 | CCN(CC)c1ccc2nc3c(cc2c1)c(=O)oc1cc(N(CC)CC)ccc13 [1b] | 0.97 | good targeting ability to lipid droplets in Hela cells | – | – | –
3 | 429 | 495 | 71 | CCN(CC)c1ccc2c(c1)oc(=O)c1cc3c(ccc4nc5c(cc43)c(=O)oc3cc(N(CC)CC)ccc35)nc12 [1d] | – | does not stain the lipid droplets in the cells | has the ability to label mitochondria | 0.90 | –
4 | 375 | 546 | 76 | CCN(CC)c1ccc2c(c1)oc(=O)c1cc3ccc4ccccc4c3nc12 [1c] | – | good targeting ability to lipid droplets in Hela cells | – | – | 0.85
